Measured values taken from publication PMC6151383 (Molecules : A Journal of Synthetic Chemistry and Natural …, 2017).
Where two headings read alike, the source gives them in different places.

Columns and labels:
Trichosporon asahii 1188 = experiment: Antifungal microdilution broth MIC, T. asahii; format: cell-based
[1] = test system: Trichophyton interdigitale 445; experiment: Antifungal microdilution broth MIC, T. interdigitale; format: cell-based; details: Trichophyton interdigitale, 445
[2] = test system: Mycobacterium avium 330/88; experiment: In vitro antimycobacterial MIC, M. avium; format: cell-based
[3] = test system: Mycobacterium kansasii 235/80; experiment: In vitro antimycobacterial MIC, M. kansasii 235/80; format: cell-based
[4] = test system: Staphylococcus epidermidis H 6966/08; experiment: Antibacterial microdilution broth MIC, S. epidermidis; format: cell-based; details: Staphylococcus epidermidis
[5] = test system: Klebsiella pneumoniae D 11750/08
[6] = test system: Mycobacterium tuberculosis 331/88 (H37Rv); experiment: In vitro antimycobacterial MIC, M. tuberculosis; format: cell-based
[7] = test system: Candida albicans ATCC 44859; experiment: Antifungal microdilution broth MIC, C. albicans; format: cell-based
Candida krusei E28 = experiment: Antifungal microdilution broth MIC, C. krusei; format: cell-based; details: Pichia kudriavzevii
[8] = test system: Escherichia coli CCM 4517; experiment: Antibacterial microdilution broth MIC, E. coli; format: cell-based; details: Escherichia coli, CCM4517; 48 h incubation; read-out: MIC EC 48 h
[9] = test system: Enterococcus faecalis J 14365/08; experiment: Antibacterial microdilution broth MIC, E. faecalis; format: cell-based; details: Enterococcus faecalis, J14365/08; 48 h incubation; read-out: MIC EF 48 h
[10] = test system: Staphylococcus aureus CCM 4516/08; experiment: Antibacterial microdilution broth MIC, S. aureus; format: cell-based; details: Staphylococcus aureus, CCM4516; 48 h incubation; read-out: MIC SA 48 h
[11] = test system: ESBL-positive Klebsiella pneumoniae J 14368/08
[12] = test system: Lichtheimia corymbifera 272; experiment: Antifungal microdilution broth MIC, L. corymbifera; format: cell-based; details: Lichtheimia corymbifera, 272; 48 h incubation; read-out: MIC LC 48 h
[13] = test system: Pseudomonas aeruginosa CCM 1961; experiment: Antibacterial microdilution broth MIC, P. aeruginosa; format: cell-based; details: Pseudomonas aeruginosa, CCM1961; 48 h incubation; read-out: MIC PA 48 h
[14] = test system: Aspergillus fumigatus 231; experiment: Antifungal microdilution broth MIC, A. fumigatus; format: cell-based
Candida glabrata 20/I = experiment: Antifungal microdilution broth MIC, C. glabrata; format: cell-based; details: Nakaseomyces glabratus
M. kansasii 6509/96 = experiment: In vitro antimycobacterial MIC, M. kansasii clinical isolate; format: cell-based; details: Mycobacterium kansasii
Candida tropicalis 156 = experiment: Antifungal microdilution broth MIC, C. tropicalis; format: cell-based
[15] = Trichosporon asahii, 1188, 48 h incubation, read-out: MIC TA 48 h
[16] = 72 h incubation, read-out: MIC TI 72 h
[17] = 120 h incubation, read-out: MIC TI 120 h
[18] = 330/88, 336 h, 14 d incubation, read-out: MIC M. avium 330/88 14 d
[19] = 330/88, 504 h, 21 d incubation, read-out: MIC M. avium 330/88 21 d
[20] = 235/80, 168 h, 7 d incubation, read-out: MIC M. kansasii 235/80 7 d
[21] = 235/80, 336 h, 14 d incubation, read-out: MIC M. kansasii 235/80 14 d
[22] = 235/80, 504 h, 21 d incubation, read-out: MIC M. kansasii 235/80 21 d
[23] = 336 h, 14 d incubation, read-out: MIC Mtb. 331/88 14 d
[24] = 504 h, 21 d incubation, read-out: MIC Mtb. 331/88 21 d
[25] = ATCC44859, 48 h incubation, read-out: MIC CA 48 h
[26] = E28, 48 h incubation, read-out: MIC CK 48 h
[27] = 48 h incubation, read-out: MIC CG 48 h
[28] = 6509/96, 168 h, 7 d incubation, read-out: MIC M. kansasii 6509/96 7 d
[29] = 6509/96, 336 h, 14 d incubation, read-out: MIC M. kansasii 6509/96 14 d
[30] = 6509/96, 504 h, 21 d incubation, read-out: MIC M. kansasii 6509/96 21 d
[31] = Candida tropicalis, 156, 48 h incubation, read-out: MIC CT 48 h
[32] = Aspergillus fumigatus, 231, 48 h incubation, read-out: MIC AF 48 h

O=S(=O)(Nc1ncccn1)c1ccc(N=Cc2cc(Cl)cc(I)c2O)cc1 [Compound 2o, 4-[(5-Chloro-2-hydroxy-3-iodobenzylidene)amino]-N-(pyrimidin-2-yl)benzenesulfonamide]
7.81 µM: MIC (Trichosporon asahii 1188; [15]) | MIC [7, 25] | MIC (Candida krusei E28; [26]) | MIC (Candida glabrata 20/I; [27]) | MIC (Candida tropicalis 156; [31])
500 µM: MIC [2, 18] | MIC [2, 19] | MIC KP 24 h [5] | MIC KP 48 h [5] | MIC KP-E 24 h [11] | MIC KP-E 48 h [11] | MIC [13]
31.2 µM: MIC ([4]; H6966/08, 48 h incubation, read-out: MIC SE 48 h)
15.6 µM: MIC [10]
1.95 µM: MIC [1, 16] | MIC [1, 17]
62.5 µM: MIC ([14]; Aspergillus fumigatus, 231, 24 h, read-out: MIC AF 24 h) | MIC ([14]; Aspergillus fumigatus, 231, 48 h, read-out: MIC AF 48 h) | MIC (M. kansasii 6509/96; [28])
125 µM: MIC [3, 20] | MIC [6, 23] | MIC [6, 24] | MIC (M. kansasii 6509/96; [29]) | MIC (M. kansasii 6509/96; [30])
250 µM: MIC [3, 21] | MIC [3, 22] | MIC [8] | MIC [9] | MIC [12]

O=S(=O)(Nc1ncccn1)c1ccc(N=Cc2cc(I)ccc2O)cc1 [Compound 2e, 4-[(2-Hydroxy-5-iodobenzylidene)amino]-N-(pyrimidin-2-yl)benzenesulfonamide]
62.5 µM: MIC [3, 21] | MIC ([4]; H6966/08, 24 h, read-out: MIC SE 24 h) | MIC [6, 23] | MIC ([7]; ATCC44859, 24 h, read-out: MIC CA 24 h) | MIC (Candida krusei E28; E28, 24 h, read-out: MIC CK 24 h) | MIC (Candida glabrata 20/I; 24 h, read-out: MIC CG 24 h) | MIC (Candida glabrata 20/I; 48 h, read-out: MIC CG 48 h) | MIC (M. kansasii 6509/96; [30])
250 µM: MIC [2, 19] | MIC [8] | MIC [10] | MIC [14, 32]
125 µM: MIC (Trichosporon asahii 1188; Trichosporon asahii, 1188, 24 h, read-out: MIC TA 24 h) | MIC (Trichosporon asahii 1188; Trichosporon asahii, 1188, 48 h, read-out: MIC TA 48 h) | MIC [2, 18] | MIC [3, 22] | MIC ([4]; H6966/08, 48 h, read-out: MIC SE 48 h) | MIC [6, 24] | MIC ([7]; ATCC44859, 48 h, read-out: MIC CA 48 h) | MIC (Candida krusei E28; E28, 48 h, read-out: MIC CK 48 h) | MIC (Candida tropicalis 156; Candida tropicalis, 156, 24 h, read-out: MIC CT 24 h) | MIC (Candida tropicalis 156; Candida tropicalis, 156, 48 h, read-out: MIC CT 48 h)
500 µM: MIC KP 24 h [5] | MIC KP 48 h [5] | MIC [9] | MIC KP-E 24 h [11] | MIC KP-E 48 h [11] | MIC [13]
32 µM: MIC [3, 20] | MIC (M. kansasii 6509/96; [28]) | MIC (M. kansasii 6509/96; [29])
31.2 µM: MIC [1, 16] | MIC [1, 17]
> 500 µM: MIC [12]

OC(Cn1cncn1)(Cn1cncn1)c1ccc(F)cc1F [FLU, fluconazole, reference compound]
250 µM: MIC (Candida krusei E28; [26])
500 µM: MIC (Trichosporon asahii 1188; [15]) | MIC (Candida glabrata 20/I; [27])
0.24 µM: MIC [7, 25]
7.81 µM: MIC [1, 16]
125 µM: MIC [1, 17]
> 500 µM: MIC [12] | MIC [14, 32] | MIC (Candida tropicalis 156; [31])

NNC(=O)c1ccncc1 [INH, isoniazid, reference compound]
> 250 µM: MIC [2, 18] | MIC [2, 19] | MIC [3, 20] | MIC [3, 21] | MIC [3, 22]
1 µM: MIC [6, 24]
8 µM: MIC (M. kansasii 6509/96; [28]) | MIC (M. kansasii 6509/96; [29]) | MIC (M. kansasii 6509/96; [30])
0.5 µM: MIC [6, 23]
